Blank lines part the entries; values can stand above or below the compound they belong to.
Assays:
[1] = target: T1, Phosphatidylinositol 4,5-bisphosphate 3-kinase catalytic subunit alpha isoform (Homo sapiens, UniProt P42336)
[2] = target: T1, Phosphatidylinositol 4,5-bisphosphate 3-kinase catalytic subunit alpha isoform; remark: listed apart in the source
[3] = target: Phosphatidylinositol 3-kinase catalytic subunit type 3 (Homo sapiens, UniProt Q8NEB9)
Description: Inhibition of human VPS34 assessed as ADP formation using ATP by fluorescence-based immunoassay

Mus musculus [4] = assay: Inhibition of PI3K-induced Akt phosphorylation at Ser 473 in HGF-stimulated nude CD1 mouse at 0.3 mg/kg, po measured after 4 hrs by quantitative electrochemiluminescence immunoassay; type: functional; settings: CD1, 4 h
Rattus norvegicus [5] = species: Rattus norvegicus; settings: in vivo, iv, 1 mg/kg
Description: Hepatic blood flow in Sprague-Dawley rat 1 mg/kg, iv

in vivo [6] = settings: Sprague-Dawley, rat, iv, 1 mg/kg
Description: (§1) Volume of distribution at steady-state in Sprague-Dawley rat at 1 mg/kg, iv

[7] = AUC in Sprague-Dawley rat at 1 mg/kg, po; type: ADME, organism-based; parameters: dose 1 mg/kg, route oral; settings: plasma
[8] = target: T2, Phosphatidylinositol 4,5-bisphosphate 3-kinase catalytic subunit delta isoform (Homo sapiens, UniProt O00329)
T2 sequence (O00329 whole entry): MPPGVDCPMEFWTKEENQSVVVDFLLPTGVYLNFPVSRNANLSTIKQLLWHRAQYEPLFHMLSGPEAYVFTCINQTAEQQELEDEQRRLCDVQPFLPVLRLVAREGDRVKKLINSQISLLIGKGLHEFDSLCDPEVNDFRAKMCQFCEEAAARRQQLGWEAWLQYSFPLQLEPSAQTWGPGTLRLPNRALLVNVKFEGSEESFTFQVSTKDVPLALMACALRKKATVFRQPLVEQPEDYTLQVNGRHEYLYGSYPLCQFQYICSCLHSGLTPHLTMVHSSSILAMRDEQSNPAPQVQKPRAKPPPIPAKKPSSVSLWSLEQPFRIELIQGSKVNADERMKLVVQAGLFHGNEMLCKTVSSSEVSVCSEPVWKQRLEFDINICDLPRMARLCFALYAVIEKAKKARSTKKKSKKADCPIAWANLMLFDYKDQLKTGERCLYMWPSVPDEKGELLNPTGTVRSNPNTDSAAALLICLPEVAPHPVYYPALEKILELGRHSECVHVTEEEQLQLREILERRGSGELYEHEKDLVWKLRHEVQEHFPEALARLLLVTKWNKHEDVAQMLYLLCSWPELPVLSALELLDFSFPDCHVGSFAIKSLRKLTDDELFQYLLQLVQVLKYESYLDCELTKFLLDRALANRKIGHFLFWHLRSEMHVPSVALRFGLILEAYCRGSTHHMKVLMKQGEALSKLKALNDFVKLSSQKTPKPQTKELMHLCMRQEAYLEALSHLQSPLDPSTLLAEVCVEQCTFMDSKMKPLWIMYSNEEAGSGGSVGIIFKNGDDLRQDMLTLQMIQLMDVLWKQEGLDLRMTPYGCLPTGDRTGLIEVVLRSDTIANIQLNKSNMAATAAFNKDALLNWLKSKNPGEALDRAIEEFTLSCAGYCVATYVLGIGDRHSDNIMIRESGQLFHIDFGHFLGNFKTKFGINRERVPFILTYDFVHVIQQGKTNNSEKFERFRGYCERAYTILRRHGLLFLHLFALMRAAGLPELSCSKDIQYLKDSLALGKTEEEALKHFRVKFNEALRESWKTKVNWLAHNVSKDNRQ

in vitro [9] = settings: human, liver microsomes
Description: Clearance in human liver microsomes assessed as compound remaining at 1 uM after 30 mins

[10] = Oral bioavailability in Sprague-Dawley rat at 1 mg/kg; type: ADME, organism-based; settings: in vivo
[11] = Plasma concentration in nude CD1 mouse at 0.3 mg/kg, po measured after 4 hrs; type: ADME, organism-based; parameters: dose 0.3 mg/kg, route oral
[12] = Plasma concentration in nude CD1 mouse at 3 mg/kg, po measured after 4 hrs; type: ADME, organism-based; parameters: dose 3 mg/kg, route oral
[13] = Plasma concentration in nude CD1 mouse at 1 mg/kg, po measured after 4 hrs; type: ADME, organism-based; parameters: dose 1 mg/kg, route oral
in vivo [14] = settings: Sprague-Dawley, rat, iv, 1 mg/kg; remark: listed apart in the source
Description: (§2) Clearance in Sprague-Dawley rat at 1 mg/kg, iv

[15] = target: DNA-dependent protein kinase catalytic subunit (Homo sapiens, UniProt P78527)
Description: Inhibition of DNA-PK using fluorescein-p53 peptide as substrate after 1 hr by TR-FRET enzyme assay

Mus musculus [16] = assay: Inhibition of PI3K-induced Akt phosphorylation at Ser 473 in HGF-stimulated nude CD1 mouse at 1 mg/kg, po measured after 4 hrs by quantitative electrochemiluminescence immunoassay; type: functional; settings: CD1, 4 h
[17] = target: Phosphatidylinositol 4,5-bisphosphate 3-kinase catalytic subunit gamma isoform (Homo sapiens, UniProt P48736); parameters: species or system Sf9
Phosphatidylinositol 4,5-bisphosphate 3-kinase catalytic subunit gamma isoform, sequence (P48736 whole entry, canonical isoform): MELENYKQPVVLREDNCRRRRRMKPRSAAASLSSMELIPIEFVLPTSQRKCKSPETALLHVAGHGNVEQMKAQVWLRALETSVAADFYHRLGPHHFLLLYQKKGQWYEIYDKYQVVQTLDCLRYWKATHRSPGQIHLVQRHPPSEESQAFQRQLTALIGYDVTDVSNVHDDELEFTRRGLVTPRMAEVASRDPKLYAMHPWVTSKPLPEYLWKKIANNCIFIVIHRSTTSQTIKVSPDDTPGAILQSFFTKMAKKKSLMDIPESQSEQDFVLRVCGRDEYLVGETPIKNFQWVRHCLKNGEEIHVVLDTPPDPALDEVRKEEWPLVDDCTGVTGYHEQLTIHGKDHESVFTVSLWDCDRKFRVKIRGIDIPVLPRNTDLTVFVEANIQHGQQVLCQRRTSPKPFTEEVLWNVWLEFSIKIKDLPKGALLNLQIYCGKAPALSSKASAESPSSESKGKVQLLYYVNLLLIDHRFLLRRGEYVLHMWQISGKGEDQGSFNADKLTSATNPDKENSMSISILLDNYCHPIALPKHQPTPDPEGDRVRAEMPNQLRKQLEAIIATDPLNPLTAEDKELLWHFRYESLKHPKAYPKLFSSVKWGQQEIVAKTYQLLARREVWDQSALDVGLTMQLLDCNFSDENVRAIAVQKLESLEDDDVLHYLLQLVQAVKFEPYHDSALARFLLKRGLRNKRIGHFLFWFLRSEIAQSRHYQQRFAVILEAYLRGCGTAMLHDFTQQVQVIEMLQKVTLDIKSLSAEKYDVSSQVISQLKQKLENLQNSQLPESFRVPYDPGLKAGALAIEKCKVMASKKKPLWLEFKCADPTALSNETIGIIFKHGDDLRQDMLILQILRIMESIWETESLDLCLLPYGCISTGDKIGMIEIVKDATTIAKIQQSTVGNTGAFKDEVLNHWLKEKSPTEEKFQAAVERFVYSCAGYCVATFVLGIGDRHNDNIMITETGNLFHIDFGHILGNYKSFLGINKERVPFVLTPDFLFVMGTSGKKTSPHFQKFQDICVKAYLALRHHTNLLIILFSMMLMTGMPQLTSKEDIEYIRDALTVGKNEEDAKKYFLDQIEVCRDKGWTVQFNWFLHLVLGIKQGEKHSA

in vitro [18] = settings: rat, liver microsomes
Description: Clearance in rat liver microsomes assessed as compound remaining at 1 uM after 30 mins

Mus musculus [19] = assay: Inhibition of PI3K-induced Akt phosphorylation at Ser 473 in HGF-stimulated nude CD1 mouse at 3 mg/kg, po measured after 4 hrs by quantitative electrochemiluminescence immunoassay; type: functional; settings: CD1, 4 h
[20] = target: Serine/threonine-protein kinase mTOR (Homo sapiens, UniProt P42345)
Description: Inhibition of mTOR using GFP-tagged 4E-BP1 after 1 hr by spectrophotometric analysis

in vivo [21] = settings: Sprague-Dawley, rat, iv, 1 mg/kg; remark: listed apart in the source
Description: (§3) Mean residence time in Sprague-Dawley rat at 1 mg/kg, iv

[22] = target: Phosphatidylinositol 4,5-bisphosphate 3-kinase catalytic subunit beta isoform (Homo sapiens, UniProt P42338)
Phosphatidylinositol 4,5-bisphosphate 3-kinase catalytic subunit beta isoform, sequence (P42338 whole entry, canonical isoform): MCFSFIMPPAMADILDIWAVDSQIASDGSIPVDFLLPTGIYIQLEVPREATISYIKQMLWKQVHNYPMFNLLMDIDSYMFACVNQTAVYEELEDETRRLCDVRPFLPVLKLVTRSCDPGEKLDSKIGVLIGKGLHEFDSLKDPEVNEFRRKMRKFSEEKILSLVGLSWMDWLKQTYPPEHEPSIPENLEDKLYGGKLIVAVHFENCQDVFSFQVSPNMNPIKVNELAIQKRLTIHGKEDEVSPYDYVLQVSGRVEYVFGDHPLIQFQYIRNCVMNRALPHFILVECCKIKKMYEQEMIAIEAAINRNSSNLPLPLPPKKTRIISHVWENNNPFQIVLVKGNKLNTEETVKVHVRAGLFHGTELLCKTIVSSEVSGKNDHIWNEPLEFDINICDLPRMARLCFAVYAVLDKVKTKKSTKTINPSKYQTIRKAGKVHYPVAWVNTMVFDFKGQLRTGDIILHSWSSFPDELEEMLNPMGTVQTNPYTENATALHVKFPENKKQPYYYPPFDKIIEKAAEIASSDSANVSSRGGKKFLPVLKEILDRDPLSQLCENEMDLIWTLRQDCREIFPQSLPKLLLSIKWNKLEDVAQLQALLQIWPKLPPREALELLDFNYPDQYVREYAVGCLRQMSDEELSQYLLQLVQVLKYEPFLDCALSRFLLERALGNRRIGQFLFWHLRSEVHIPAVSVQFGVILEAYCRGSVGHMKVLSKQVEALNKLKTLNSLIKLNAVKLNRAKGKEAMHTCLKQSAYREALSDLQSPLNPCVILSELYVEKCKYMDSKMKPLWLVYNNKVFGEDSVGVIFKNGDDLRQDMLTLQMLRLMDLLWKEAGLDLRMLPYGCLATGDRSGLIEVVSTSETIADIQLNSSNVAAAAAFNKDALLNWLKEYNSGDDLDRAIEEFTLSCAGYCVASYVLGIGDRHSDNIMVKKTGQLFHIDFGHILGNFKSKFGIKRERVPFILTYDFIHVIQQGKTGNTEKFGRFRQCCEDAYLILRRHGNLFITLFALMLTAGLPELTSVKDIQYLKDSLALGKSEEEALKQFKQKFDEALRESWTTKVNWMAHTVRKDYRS

Mus musculus [23] = species: Mus musculus; assay: animal or person; settings: CD1, po, 3 h, read-out: INH
in vivo [24] = settings: nude CD1, mouse, plasma, po, 3 mg/kg
Description: Plasma concentration in nude CD1 mouse at 3 mg/kg, po measured after 3 hrs

in vivo [25] = settings: nude CD1, mouse, plasma, po, 0.3 mg/kg
Description: Plasma concentration in nude CD1 mouse at 0.3 mg/kg, po measured after 3 hrs

in vivo [26] = settings: nude CD1, mouse, plasma, po, 1 mg/kg
Description: Plasma concentration in nude CD1 mouse at 1 mg/kg, po measured after 3 hrs

Mus musculus [27] = species: Mus musculus; assay: animal or person; settings: CD1, po, 3 h, read-out: INH; remark: listed apart in the source
Mus musculus [28] = species: Mus musculus; assay: animal or person; settings: CD1, po, 3 h, read-out: INH; remark: listed apart in the source
Rattus norvegicus [29] = species: Rattus norvegicus; settings: in vivo, iv, 1 mg/kg; remark: listed apart in the source
Description: as §1

Rattus norvegicus [30] = species: Rattus norvegicus; settings: in vivo, iv, 1 mg/kg; remark: listed apart in the source
Description: as §3

Rattus norvegicus [31] = species: Rattus norvegicus; settings: in vivo, iv, 1 mg/kg; remark: listed apart in the source
Description: as §2

T1 sequence (P42336 whole entry, canonical isoform): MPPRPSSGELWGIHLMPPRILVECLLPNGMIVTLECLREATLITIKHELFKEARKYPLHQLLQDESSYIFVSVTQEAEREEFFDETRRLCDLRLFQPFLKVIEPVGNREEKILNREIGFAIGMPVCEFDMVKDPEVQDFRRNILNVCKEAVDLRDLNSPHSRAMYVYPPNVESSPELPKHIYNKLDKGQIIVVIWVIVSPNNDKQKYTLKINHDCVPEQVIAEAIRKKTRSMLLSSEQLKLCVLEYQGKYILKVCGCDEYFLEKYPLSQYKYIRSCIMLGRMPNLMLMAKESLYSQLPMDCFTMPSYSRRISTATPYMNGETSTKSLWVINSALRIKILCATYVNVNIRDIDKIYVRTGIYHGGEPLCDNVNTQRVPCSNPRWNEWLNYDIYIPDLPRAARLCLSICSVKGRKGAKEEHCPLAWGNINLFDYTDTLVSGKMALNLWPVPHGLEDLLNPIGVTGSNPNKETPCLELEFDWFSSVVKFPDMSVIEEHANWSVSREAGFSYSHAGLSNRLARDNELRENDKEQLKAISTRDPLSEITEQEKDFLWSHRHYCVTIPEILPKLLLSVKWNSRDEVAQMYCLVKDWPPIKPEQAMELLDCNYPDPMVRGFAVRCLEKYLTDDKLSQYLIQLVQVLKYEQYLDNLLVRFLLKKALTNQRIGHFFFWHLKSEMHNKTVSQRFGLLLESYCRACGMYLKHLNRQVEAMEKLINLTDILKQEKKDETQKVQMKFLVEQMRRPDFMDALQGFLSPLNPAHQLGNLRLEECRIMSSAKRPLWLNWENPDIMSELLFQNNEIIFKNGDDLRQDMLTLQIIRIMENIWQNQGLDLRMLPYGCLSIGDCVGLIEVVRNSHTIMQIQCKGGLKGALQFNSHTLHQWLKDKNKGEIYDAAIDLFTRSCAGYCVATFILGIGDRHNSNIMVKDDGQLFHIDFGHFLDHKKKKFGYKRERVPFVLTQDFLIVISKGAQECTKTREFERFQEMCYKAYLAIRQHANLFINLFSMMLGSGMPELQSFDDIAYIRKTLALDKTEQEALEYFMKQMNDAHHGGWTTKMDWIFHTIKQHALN
Phosphatidylinositol 3-kinase catalytic subunit type 3, sequence (Q8NEB9 whole entry): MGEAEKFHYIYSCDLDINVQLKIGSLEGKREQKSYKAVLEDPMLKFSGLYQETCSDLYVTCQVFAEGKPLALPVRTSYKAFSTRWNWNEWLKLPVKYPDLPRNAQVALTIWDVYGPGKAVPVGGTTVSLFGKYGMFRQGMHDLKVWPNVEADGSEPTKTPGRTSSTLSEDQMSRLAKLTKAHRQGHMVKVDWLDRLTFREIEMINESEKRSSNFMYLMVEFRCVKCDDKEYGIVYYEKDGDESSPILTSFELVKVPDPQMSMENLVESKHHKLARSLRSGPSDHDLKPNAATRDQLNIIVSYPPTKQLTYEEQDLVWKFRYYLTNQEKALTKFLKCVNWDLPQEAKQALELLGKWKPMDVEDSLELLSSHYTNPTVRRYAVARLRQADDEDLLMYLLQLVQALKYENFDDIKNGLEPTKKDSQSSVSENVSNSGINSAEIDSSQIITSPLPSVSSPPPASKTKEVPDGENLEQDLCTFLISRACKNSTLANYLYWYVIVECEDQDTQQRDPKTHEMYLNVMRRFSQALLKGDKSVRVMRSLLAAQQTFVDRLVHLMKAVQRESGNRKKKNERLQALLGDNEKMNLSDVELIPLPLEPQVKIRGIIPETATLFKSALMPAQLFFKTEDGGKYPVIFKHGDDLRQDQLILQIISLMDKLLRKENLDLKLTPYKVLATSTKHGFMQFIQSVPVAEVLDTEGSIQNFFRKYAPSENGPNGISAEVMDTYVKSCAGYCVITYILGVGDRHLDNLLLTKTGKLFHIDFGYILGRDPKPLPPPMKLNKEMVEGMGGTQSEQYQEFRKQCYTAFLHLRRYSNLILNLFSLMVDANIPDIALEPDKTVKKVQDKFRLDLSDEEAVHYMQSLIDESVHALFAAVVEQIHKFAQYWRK

SMILES: O=S(=O)(Nc1cc(-c2ccc3ncc(N4C[C@H]5CC[C@H](CC5)C4)nc3c2)cnc1Cl)c1ccc(F)cc1
Ki [1]: 1 nM
IC50 [2]: 247 nM

SMILES: O=S(=O)(Nc1cc(-c2ccc3ncc(N4CCOCC4)nc3c2)cnc1Cl)c1ccc(F)cc1
IC50 [3]: 5 nM
inhibition in vivo at 0.3 mg/kg (Mus musculus [4]): 55%
QH (Rattus norvegicus [5]): 0.6%
Vd (in vivo [6]): 0.19 L/kg
AUC [7]: 29600 ng·h/mL
IC50 [8]: 4.4 nM
microsomal CLint at 0.5 h, 1 µM (in vitro [9]): < 14 µL/min/mg
bioavailability [10]: 88%
concentration at 4 h [11]: 448 ng/mL
concentration at 4 h [12]: 4470 ng/mL
concentration at 4 h [13]: 1730 ng/mL
clearance (in vivo [14]): 0.333 mL/min/kg
IC50 [15]: 3.4 nM
inhibition in vivo at 1 mg/kg (Mus musculus [16]): 86%
IC50 [17]: 2.4 nM
microsomal CLint at 0.5 h, 1 µM (in vitro [18]): 16 µL/min/mg
inhibition in vivo at 3 mg/kg (Mus musculus [19]): 97%
IC50 [20]: 5 nM
MRT (in vivo [21]): 9 h

SMILES: O=S(=O)(Nc1cc(-c2ccc3ncccc3c2)cnc1Cl)c1ccc(F)cc1
Ki [1]: 2.1 nM
IC50 [2]: 377 nM

SMILES: O=S(=O)(Nc1cc(-c2ccc3nccc(-c4cccnc4)c3c2)cnc1Cl)c1ccc(F)cc1
IC50 [22]: 10 nM
inhibition in vivo at 3 mg/kg (Mus musculus [23]): 99%
IC50 [3]: 2.9 nM
QH (Rattus norvegicus [5]): 0.6%
Vd (in vivo [6]): 0.81 L/kg
AUC [7]: 5630 ng·h/mL
concentration at 3 h (in vivo [24]): 2330 ng/mL
IC50 [8]: 5.9 nM
microsomal CLint at 0.5 h, 1 µM (in vitro [9]): < 14 µL/min/mg
bioavailability [10]: 73%
concentration at 3 h (in vivo [25]): 210 ng/mL
concentration at 3 h (in vivo [26]): 899 ng/mL
clearance (in vivo [14]): 2.17 mL/min/kg
IC50 [17]: 7.7 nM
microsomal CLint at 0.5 h, 1 µM (in vitro [18]): 33 µL/min/mg
inhibition in vivo at 1 mg/kg (Mus musculus [27]): 97%
MRT (in vivo [21]): 6.3 h
inhibition in vivo at 0.3 mg/kg (Mus musculus [28]): 70%

SMILES: O=S(=O)(Nc1cc(-c2ccc3ncc(NCCN4CCCCC4)nc3c2)cnc1Cl)c1ccc(F)cc1
QH (Rattus norvegicus [5]): 0.6%
AUC [7]: 271 ng·h/mL
Vdss (Rattus norvegicus [29]): 0.19 L/kg
MRT (Rattus norvegicus [30]): 2.1 h
microsomal CLint at 0.5 h, 1 µM (in vitro [9]): 25 µL/min/mg
bioavailability [10]: 16%
CL (Rattus norvegicus [31]): 9.83 mL/min/kg
microsomal CLint at 0.5 h, 1 µM (in vitro [18]): < 14 µL/min/mg

SMILES: O=S(=O)(Nc1cc(-c2ccc3ncc(N4CCC(F)(F)CC4)nc3c2)cnc1Cl)c1ccc(F)cc1
Ki [1]: 0.6 nM
IC50 [2]: 189 nM

SMILES: O=S(=O)(Nc1cc(-c2ccc3nccc(-c4ccncc4)c3c2)cnc1Cl)c1ccc(F)cc1
IC50 [22]: 15 nM
inhibition in vivo at 3 mg/kg (Mus musculus [23]): > 99%
IC50 [3]: 5.3 nM
QH (Rattus norvegicus [5]): 0.6%
Vd (in vivo [6]): 0.52 L/kg
AUC [7]: 14700 ng·h/mL
concentration at 3 h (in vivo [24]): 2470 ng/mL
IC50 [8]: 6 nM
microsomal CLint at 0.5 h, 1 µM (in vitro [9]): < 14 µL/min/mg
bioavailability [10]: 70%
concentration at 3 h (in vivo [25]): 326 ng/mL
concentration at 3 h (in vivo [26]): 950 ng/mL
clearance (in vivo [14]): 0.667 mL/min/kg
IC50 [17]: 13 nM
microsomal CLint at 0.5 h, 1 µM (in vitro [18]): 20 µL/min/mg
inhibition in vivo at 1 mg/kg (Mus musculus [27]): 98%
IC50 [20]: 0.41 nM
MRT (in vivo [21]): 15 h
inhibition in vivo at 0.3 mg/kg (Mus musculus [28]): 89%

SMILES: COCCNc1ccnc2ccc(-c3cnc(Cl)c(NS(=O)(=O)c4ccc(F)cc4)c3)cc12
Ki [1]: 69 nM
IC50 [2]: 1020 nM

SMILES: O=S(=O)(Nc1cc(-c2ccc3nccc(N4CCN(Cc5ccncc5)CC4)c3c2)cnc1Cl)c1ccc(F)cc1
IC50 [22]: 15 nM
QH (Rattus norvegicus [5]): 0.6%
IC50 [8]: 6 nM
microsomal CLint at 0.5 h, 1 µM (in vitro [9]): 247 µL/min/mg
IC50 [1]: 4.6 nM
Ki [1]: 0.9 nM
IC50 [2]: 18 nM
IC50 [17]: 6.5 nM
microsomal CLint at 0.5 h, 1 µM (in vitro [18]): > 399 µL/min/mg

SMILES: O=S(=O)(Nc1cc(-c2ccc3nccc(N4CCC(O)CC4)c3c2)cnc1Cl)c1ccc(F)cc1
Ki [1]: 0.9 nM
IC50 [2]: 150 nM

More lines, main results first:

Ki [1]: 856 nM
SMILES: O=S(=O)(Nc1cc(-c2cnc3ncccc3c2)cnc1Cl)c1ccc(F)cc1

Ki [1]: 1.3 nM
IC50 [2]: 127 nM
SMILES: O=S(=O)(Nc1cc(-c2ccc3nccc(-c4ccccc4)c3c2)cnc1Cl)c1ccc(F)cc1

Ki [1]: 3.3 nM
IC50 [2]: 2710 nM
SMILES: O=S(=O)(Nc1cc(-c2ccc3ncc(NCC4CCCNC4)nc3c2)cnc1Cl)c1ccc(F)cc1 (configuration not stated)

Ki [1]: 200 nM
IC50 [2]: > 10000 nM
SMILES: O=S(=O)(Nc1cc(-c2cc3cccnc3cn2)cnc1Cl)c1ccc(F)cc1

Ki [1]: 38 nM
IC50 [2]: 1920 nM
SMILES: O=S(=O)(Nc1cc(-c2ccc3nnccc3c2)cnc1Cl)c1ccc(F)cc1

Ki [1]: 0.9 nM
IC50 [2]: 128 nM
SMILES: O=S(=O)(Nc1cc(-c2ccc3ncc(N4CCCCC4)nc3c2)cnc1Cl)c1ccc(F)cc1

Ki [1]: 5.7 nM
IC50 [2]: 223 nM
SMILES: CN(C)c1ccnc2ccc(-c3cnc(Cl)c(NS(=O)(=O)c4ccc(F)cc4)c3)cc12

Ki [1]: 1 nM
IC50 [2]: 136 nM
SMILES: O=S(=O)(Nc1cc(-c2ccc3nccc(N4CCN(Cc5ccccc5)CC4)c3c2)cnc1Cl)c1ccc(F)cc1

IC50 [22]: 9.8 nM
IC50 [8]: 6 nM
IC50 [17]: 16 nM
SMILES: O=S(=O)(Nc1cc(-c2ccc3ncc(NCCN4CCOCC4)nc3c2)cnc1Cl)c1ccc(F)cc1

QH (Rattus norvegicus [5]): 0.6%
Vd (in vivo [6]): 0.4 L/kg
AUC [7]: 10800 ng·h/mL
IC50 [8]: 5.6 nM
microsomal CLint at 0.5 h, 1 µM (in vitro [9]): 31 µL/min/mg
bioavailability [10]: 72%
Ki [1]: 0.8 nM
concentration at 4 h [11]: 155 ng/mL
concentration at 4 h [12]: 1790 ng/mL
concentration at 4 h [13]: 417 ng/mL
IC50 [2]: 17 nM
clearance (in vivo [14]): 1.33 mL/min/kg
IC50 [17]: 13 nM
microsomal CLint at 0.5 h, 1 µM (in vitro [18]): 32 µL/min/mg
IC50 [20]: 37 nM
MRT (in vivo [21]): 5.4 h
SMILES: CC(C)N1CCN(c2cnc3ccc(-c4cnc(Cl)c(NS(=O)(=O)c5ccc(F)cc5)c4)cc3n2)CC1
inhibition in vivo at 0.3 mg/kg (Mus musculus [4]): 50%
inhibition in vivo at 1 mg/kg (Mus musculus [16]): 86%
inhibition in vivo at 3 mg/kg (Mus musculus [19]): 95%

Ki [1]: 0.7 nM
IC50 [2]: 61 nM
SMILES: CN(C)c1ccc(-c2ccnc3ccc(-c4cnc(Cl)c(NS(=O)(=O)c5ccc(F)cc5)c4)cc23)cc1
